Laboratory results published in US12558329B2 (New York University, priority 2021, dated 2026).
“Also recorded” adds a separate entry of the source.

Tests used:
human cells = test: 18O2-GASSP labelling of human cells, untargeted polar metabolomics, with or without IOX1; type: cell-based; details: 18O labelling of the metabolite in cells treated with IOX1 (dioxygenase inhibitor), 24 hours
Experimental: To map the molecular fate of O2 in metabolic pathways in living cells, GASSP was used to carry out ^18O2 labelling in cell lines of different tissue origins at ^18O2 concentrations that represented physiological (3%), hypoxic (1%), and severely hypoxic (0.2%) oxygen tensions found in tissues and tumours^7. At the end of each run, polar metabolites were extracted and untargeted polar metabolomics using liquid chromatography-high resolution mass spectrometry (LC-MS) were carried out to identify metabolites labeled with ^18O.
A list of unique features identified by untargeted metabolomics that were >0.25% (natural abundance of ^18O is 0.2%) labelled by ^18O atoms in each cell line at each oxygen tension was generated. In addition, background signal was controlled by requiring that ^18O labeled peaks had to have a signal that was two-fold greater than naturally occurring isotopes found in non-labelled (^16O) metabolite cell extracts. To determine the proportion of unique ^18O labelled features that were due to dioxygenase activity, cells were treated with a pan-dioxygenase inhibitor (IOX1) at concentrations that inhibit iron-dependent dioxygenases, such as the HIF1α prolyl hydroxylases (FIGS. 5E-5F) and identified ^18O labelled polar metabolites. This list of ^18O metabolites was generated by identifying all features in the unlabelled samples, filtering these features against blank samples to remove background peaks, and calculating the fractional ^18O labelling with the assumption that a metabolite would have no more than three oxygen atoms labelled, followed by manual curation of labelled features (FIG. 1B and FIG. 5G). […] These ^18O-labelled features were termed the oxy-metabolome.
To determine the identities of the labeled metabolites, the list of ^18O labelled features was annotated to their corresponding unlabelled metabolites using retention time matching, tandem mass spectrometry (MS2) fragmentation patterns, and database searching.
All steps involved in setting up labelling with ^18O2 were performed at room temperature and inside a chemical fume hood. The procedure may vary depending on the type and number of tissue culture plates in the chamber and the amount of media in the plates. Users must test the system by using ^16O2:CO2:N2 or other unlabelled gases to optimize conditions for their needs and avoid consumption of costly labelled gases. Cells were treated with or without 5 μM MG132, 500 μM IOX1, 250 μM DFO, or 70 μM ascorbate, before placing tissue culture plates into the modular incubator chamber (MIC) containing a wireless oxygen sensor and a 15 cm dish of water to maintain humidity. Next, the clamps were closed to form an air-tight seal between the lid and platform of the MIC. […] N2 flushing was repeated for a total of three times, or until the sensor in the chamber stabilized at 0% O2 for 10 minutes.

MIAPACA2 cells [1] = test: Pulse-chase study with tyrosine-derived intermediates after two weeks of 13C9-Tyr labelling; type: cell-based, human; details: for effect on intracellular levels of the other Tyr-derived metabolites: exogenous unlabelled metabolite; for increase of the fraction of unlabelled (non-labelled) CoQ10: unlabelled intermediate added in the presence of 13C9-Tyr, 21% O2
Experimental: Using the same experimental scheme, the incorporation of Tyr-derived metabolites into CoQ10 was measured. […] For metabolomics, briefly, cells were washed in 4° C. 0.9% saline and metabolites were extracted with 46% methanol:23% H2O:[…] chloroform that contained a labelled amino acid standard mix (MSK-A2-1.2, Cambridge Isotope Laboratories, Inc.). Enzymatic assay samples were extracted using 80% methanol: 20% H2O that contained labelled amino acid standards. Extracts were placed into 1.5 mL Eppendorf tubes, vortexed at 4° C. for 10 min and centrifuged at 4° C. for 10 min at 17,200×g in a microcentrifuge. The aqueous phase was transferred to vials for GC-MS or Eppendorf tubes for LC-MS. Polar samples were evaporated in a […] and samples were resolved by GC-MS or LC-MS. Lipid samples were dried using a stream of N2 (for ^18O labelling studies) or air. Metabolite and lipid extracts were submitted to the […] Metabolomics Core Resource Laboratory. For polar metabolomics, the LC column was a Millipore ZIC-pHILIC (2.1×150 […], 5 μm bead size) coupled to a Dionex […] 3000 system. The column oven temperature was held at 25° C. The flow rate was 100 μL/min, and the injection volume was 1 μL. Buffer A was 10 mM ammonium carbonate in water, pH 9, and Buffer B was neat acetonitrile. The gradient profile was 80-20% B (0-30 min), 20-80% B (30-31 min), and 80-80% B (31-42 min). MS Analyses were carried out on a Thermo Q Exactive HF mass spectrometer using a heated electrospray ionization (HESI) source. The method duration was 30 min using a polarity-switching, top 5 method. The spray voltage for both positive and negative ion modes was 3.5 kV. The capillary temperature was 320° C. with a maximum spray current of 100 ρA. The full MS scan was carried out at 120,000 resolution with a scan range of 67-1000 m/z. For ^18O2 labelling experiments, full MS scans were carried out at 240,000 resolution at the same scan range. Tandem MS spectra were obtained at 15,000 resolution. All data were acquired in profile mode. Peak heights were analyzed using Xcalibur (ThermoFisher Scientific). Lipid metabolomics were acquired using a Waters CSH-C18 (2.1×100 mm, 1.7 μm) column coupled to a Dionex […] 3000 system. The column oven temperature was held at 55° C. The flow rate was 300 μL/min and the injection volume was 1 μL. Buffer A was 60:40 acetonitrile:water, 0.1% formic acid and Buffer B was 90:10 isopropanol:acetonitrile, 10 mM ammonium formate. The gradient profile was 40-43% B (0-1.25 min), 43-50% B (1.25-2 min), 50-54% B (2-11 min), 54-70% B (11-12 min), 70-99% B (12-18 min), […], 99-40% B (23-24 min), hold at 40% B (1 min). MS Analyses were carried out on a Thermo Q Exactive HF mass spectrometer using a heated electrospray ionization (HESI) source. The method duration was 20 minutes using a polarity-switching, top 10 method. The spray voltage for both positive and negative ion modes was 3.5 kV. The capillary temperature was 320° C. with a maximum spray current of 100 ρA. The full MS scan was carried out at 120,000 resolution with a scan range of 350-2000 m/z. For ^18O2 labelling experiments, full MS scan was carried out at 240,000 resolution at the same scan range. Tandem MS spectra were obtained at 15,000 resolution. All data were acquired in profile mode. Peak heights were analyzed using Xcalibur (ThermoFisher Scientific).

MIAPACA2 cells [2] = test: Oxygen consumption rate (OCR) in spheroids; type: cell-based, human; details: HPDL KO cells, 1 mM, 3D conditions
Experimental: For measurement of oxygen consumption in spheroids, oxygen consumption rate (OCR) was measured with an XF96 analyzer (Seahorse Bioscience) and the Seahorse XFe96 Spheroid FluxPak, as described by the manufacturer's protocol. Spheroids were generated by seeding 40,000 cells per well into a low-attachment U-bottom 96-well plate with DMEM+10% diaFBS and 5% Matrigel. If indicated, spheroids were treated with or without 1 mM 4-HMA or 4-HB for the duration of the assay. Spheroids were allowed to form for three days before measuring oxygen consumption measurement. Each spheroid was transferred to a Spheroid FluxPak plate containing DMEM (25 mM glucose, 4 mM glutamine, and without pyruvate, phenol red and bicarbonate), and allowed to equilibrate for 1 hr at 37° C., no CO2. OCR measurements were normalized to size of the spheroid.

MIAPACA2 cells [3] = test: 3D growth assay; type: cell-based, human; details: HPDL KO cells, 1 mM, three days
Experimental: For the 3D growth assay, approximately 2,500 cells were seeded into a low-attachment 96-well plate containing DMEM+10% diaFBS and 5% Matrigel. Cells were grown for three days at 37° C. and 5% CO2. Cells were also treated or without 1 mM 4-HMA or 4-HB for the duration of the assay. To measure 3D growth with the CyQUANT Cell Proliferation Assay kit, plates were frozen at −80° C., thawed at room temperature, and equal volumes of 2× CyQUANT reagent+lysis buffer was added to the wells. As a control, wells containing media+5% Matrigel and no cells were used as blanks. CyQUANT measurements were performed as described in the manufacturer's instructions.

HPDL [4] = test: HPDL levels in the cell after addition of HPDL products; type: cell-based
HPDL [5] = target: T1, HPDL (Homo sapiens, UniProt Q96IR7); test: HPDL enzymatic assay with immunopurified HPDL-FLAG; type: biochemical; details: 400 μM substrate, 37° C., 21% 16O2, 1 hour
T1 construct: made in house; host or cells: MIAPACA2 sgHPDL #3 (HPDL-knockout) cells stably infected with the pLenti6.2 lentiviral vector; anti-FLAG M2 magnetic bead immunoprecipitation
T1 sequence (Q96IR7 1-371): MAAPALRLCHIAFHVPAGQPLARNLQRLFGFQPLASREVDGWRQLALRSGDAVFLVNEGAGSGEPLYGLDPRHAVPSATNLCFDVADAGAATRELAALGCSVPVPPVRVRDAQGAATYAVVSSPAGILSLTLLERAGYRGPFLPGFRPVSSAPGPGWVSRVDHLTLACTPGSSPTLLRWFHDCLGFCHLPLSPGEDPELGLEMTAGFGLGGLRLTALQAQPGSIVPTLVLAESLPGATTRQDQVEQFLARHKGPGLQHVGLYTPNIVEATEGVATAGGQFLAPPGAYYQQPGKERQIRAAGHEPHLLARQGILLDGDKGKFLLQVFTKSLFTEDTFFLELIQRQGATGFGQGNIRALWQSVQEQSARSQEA
Experimental: Homogentisate, the product of HPD, was not produced in any of the present enzymatic assays. […] This directly confirmed that HPDL activity, and not a potential HPDL-interacting enzyme, was needed for 4-HMA synthesis.
For the HPDL enzymatic assay, cell lysates were generated in TNE lysis buffer (50 mM Tris-HCl pH 8.0, 150 mM NaCl, 2 mM EDTA, and 1% NP-40, supplemented with protease (ThermoFisher Scientific) and phosphatase (10 mM NaF, 10 mM β-glycerophosphate, and 10 mM sodium pyrophosphate) inhibitors. HPDL-FLAG was immunoprecipitated using anti-FLAG M2 magnetic beads (Millipore Sigma, M8823). Cell lysates were incubated with anti-FLAG M2 magnetic beads for 1 hour at 4° C. on a rotating platform. Beads were washed four times with TNE lysis buffer, and then 10% and 90% of the immunopurified protein was used for immunoblotting or enzymatic assay, respectively. […] At the end of the assay, 10 uL of assay buffer was retrieved and prepared for analysis by gas chromatography-mass spectrometry (GC-MS, see Metabolomics section).

| Compound | IOX1 Sensitive (Yes/No) (human cells) | incorporation into CoQ10 (MIAPACA2 cells [1]) | effect on 4-HB levels (MIAPACA2 cells [1]; exogenous metabolite, 24 hours) | effect on intracellular levels of the other Tyr-derived metabolites (MIAPACA2 cells [1]; 24 hours) | increase of the fraction of unlabelled (non-labelled) CoQ10 (MIAPACA2 cells [1]; 24 hours) | OCR (MIAPACA2 cells [2]) | 3D growth (MIAPACA2 cells [3]) | HPDL levels in the cell (HPDL [4]) | 4-HMA production by HPDL from the substrate (HPDL [5]) |
| --- | --- | --- | --- | --- | --- | --- | --- | --- | --- |
| O=C(O)C(O)c1ccc(O)cc1 (racemic) [Metabolite 4-HMA, 2-hydroxy-2-(4-hydroxyphenyl)acetic acid] | Yes | incorporated into CoQ10 | minimal effect | had no effect on Tyr, 4-HPPA and 4-HPLA levels | 30% | increased | increased | reduce |  |
| O=C(O)c1ccc(O)cc1 [Metabolite 4-HB, 4-hydroxybenzoic acid] |  |  |  | did not change Tyr, 4-HPPA, 4-HPLA, and 4-HMA levels | 30% | increased | increased | reduce |  |
| O=C(O)C(=O)Cc1ccc(O)cc1 [Metabolite 4-HPPA, 4-hydroxyphenylpyruvate] |  |  |  |  | 30% |  |  |  | resulted in the generation of 4-HMA; also recorded: synthesized 4-HMA |
| N[C@@H](Cc1ccc(O)cc1)C(=O)O [Tyr, tyrosine] | Yes |  |  |  |  |  |  |  | not |
